Measurements from patent publication US11278521B2, “GAS5 binding compounds, formulations, and uses thereof” (UNIVERSITY OF SOUTH FLORIDA, priority 2015, dated 2022).
Entries after “also recorded” stand apart in the source; their conditions may differ.

What was measured:
GAS5 [1] = test: screen of γ-AApeptide one-bead-one-compound combinatorial library with fluorescein tagged GAS5 oligonucleotide probe and validation; assay type: binding; conditions: positive beads from screen of 160,000 molecules, tRNA as control
Source text: The interaction between UPF1 and GAS5 was disrupted using a γ-AApeptide based one-bead-one-compound (OBOC) combinatorial library (Wu H, Li Y, Bai G, Niu Y, Qiao Q, Tipton J D, Cao C, Cai J. gamma-AApeptide-based small-molecule ligands that inhibit Abeta aggregation. Chemical communications. 2014; 50(40):5206-8. doi: 10.1039/c3cc46685j. PubMed PMID: 24158240). The γ-AApeptide is a peptidomimetic with side chains for chemical diversity and are resistant to proteolytic cleavage. To screen the compound library, a probe that contained a fluorescein tagged oligonucleotide was synthesized. The probe spanned 30 nucleotides on either side of the UAA sequences on GAS5 (FIG. 2) The fluorescein was attached to the 5′end (beginning of oligonucleotide probe sequence). The nucleotide sequence within the GAS5 IncRNA that the oligonucleotide probe binds to can be about 100% identical to […] […]
The length of oligonucleotide was required to maintain stem loop structure to specifically bind to GAS5. […] The compound having a structure according to Formula 3 was determined to have a chemical formula of C68H92N10O9S, a mass of about 1224.6769, and a molecular weight of 1225.6050. The compound having a structure according to Formula 14 was determined to have a chemical formula of C63H85N9O13S, a mass of about 1207.5988, and a molecular weight of 1208.4830.

GAS5 transcript = test: RNA-EMSA (REMSA) with biotin-labeled in vitro transcribed GAS5; assay type: binding; conditions: 0.1 nM biotin-labeled GAS5, 10 nM compound, 10U yeast tRNA, 20 min at room temperature
Protocol: RNA-EMSA was performed as previously described (see e.g. Apostolatos, H., Apostolatos, A., Vickers, T., Watson, J. E., Song, S., Vale, F., Cooper, D. R., Sanchez-Ramos, J., and Patel, N. A. (2010) Vitamin A metabolite, all-trans-retinoic acid, mediates alternative splicing of protein kinase C deltaVIII (PKCdeltaVIII) isoform via splicing factor SC35. J Biol Chem 285, 25987-25995 and Patel, R. S., Carter, G., Cooper, D. R., Apostolatos, H., and Patel, N. A. (2014) Transformer 2beta homolog (Drosophila) (TRA2B) regulates protein kinase C deltal (PKCdeltal) splice variant expression during 3T3L1 preadipocyte cell cycle. J Biol Chem 289, 31662-31672.
Briefly, GAS5 was cloned in TOPO vector which has the T7 promoter. In vitro transcription assay was performed with biotin-label using RiboScribe kit using T7 RNA polymerase at 37° C. for 2 h in the presence of nucleotides, RNase inhibitor, and 5× transcription buffer. 0.1 nM of transcribed, biotin-labeled GAS5 was incubated with 10 nM G5-1397 in presence of 10U yeast tRNA and 10 units of RNase inhibitor in a final volume of 10 μl of RNA shift buffer for 20 min at room temperature and detected using Biotin Chromogenic Detection kit (ThermoFisher). […] Using the same assay, compounds according to Formulas 4-19 were also observed to bind GAS5 long non-coding RNA.

DM adipocytes = test: cell viability assay after treatment with compound; assay type: cell-based; conditions: DM adipocytes treated with compound, cell viability assay (FIG. 3B)
GAS5 [2] = test: GAS5 levels in DM adipocytes by SYBR Green qPCR; assay type: cell-based; conditions: 20 nM, about 24 hours
Protocol: Strategy for compound design: GAS5 transcript may be targeted to faster turnover by nonsense mediated RNA decay. GAS5 transcript has a premature termination codon which renders greater susceptibility for nonsense mediated RNA decay. […] GAS5 and UPF1 levels were measured in NDM and DM adipocytes.
DM adipocytes were treated with G5-1397 (20 nM) for about 24 hours. GAS5 levels were measured using SYBR Green qPCR.

Structure (SMILES) | ability to bind GAS5 (GAS5 [1]) | binding to GAS5 transcript (GAS5 transcript) | cell toxicity (DM adipocytes) | GAS5 levels (GAS5 [2])
C[C@H]1CN(C(=O)CC2CC2)CC(=O)N[C@@H](CCC(=O)O)CN(C(=O)CCC2CCCCC2)CC(=O)N[C@@H](Cc2ccccc2)CN(CC(N)=O)C(=O)CCSCc2ccc(cc2)C(=O)N[C@@H](Cc2ccccc2)CN(C(=O)CCC(=O)O)CC(=O)N1 [Formula 14] | able to bind GAS5 | – | – | –
CC(C)C[C@H]1CN(C(=O)CC2CC2)CC(=O)N[C@@H](CCCCN)CN(C(=O)CCc2ccccc2)CC(=O)N[C@@H](Cc2ccccc2)CN(CC(N)=O)C(=O)CCSCc2ccc(cc2)C(=O)N[C@@H](Cc2ccccc2)CN(C(=O)CC2CC2)CC(=O)N1 [Formula G5-1397] | able to bind GAS5 | bound to GAS5 transcript; also recorded: GAS5 transcript binding | without causing cell toxicity | substantially increases GAS5 levels
